Experimental data taken from US12478690B2, “Methods and systems for controlled release of drug cargo via ATP-responsive liposomes” (UNIVERSITY OF TENNESSEE RESEARCH FOUNDATION, priority 2021, dated 2025).

Assay: Diffusion ordered spectroscopy (DOSY) of the lipid switch before and after ATP
Format: physicochemical
Conditions: DMSO containing 8% D2O; substance alone
Procedure: Diffusion ordered spectroscopy (DOSY) was performed on 1a lipid switch molecules in de-DMSO containing 8% D2O before and after adding ATP. A decrease in diffusion coefficient was observed. In at least one experiment, the diffusion coefficient decreased from (1.0793±0.043)×10^−6 cm^2/s for 1a lipid switch molecule and (1.142±0.018)×10^−6 cm^2/s for ATP to (0.987±0.098)×10^−6 cm^2/s for 1a+ATP. The diffusion coefficient indicates an increase in the hydrodynamic radius per lipid molecule upon binding.

With `Nc1ncnc2c1ncn2[C@@H]1O[C@H](COP(=O)(O)OP(=O)(O)OP(=O)(O)O)[C@@H](O)[C@H]1O` [ATP, adenosine triphosphate] the Diffusion coefficient was 1.142±0.018 ×10^−6 cm^2/s.
